Measurements from PMC6017236, “Activation Profile Analysis of CruCA4, an α-Carbonic Anhydrase Involved in Skeleton Formation of the Mediterranean Red Coral, Corallium rubrum” (Molecules : A Journal of Synthetic Chemistry and Natural …, 2017).

Target: T1, CruCA4 (Corallium rubrum, UniProt A0A1B0Y987)
T1 construct: gene CA4
Assay: stopped-flow CO2 hydrase activation assay
Assay type: biochemical
Settings: activation constant (activator); CO2 1.7-17 mM substrate, pH 7.5, 25 °C, 15 min pre-incubation
Excerpt: stopped-flow CO2 hydrase activation assay on CruCA4

T1 sequence (A0A1B0Y987 entry or part of it): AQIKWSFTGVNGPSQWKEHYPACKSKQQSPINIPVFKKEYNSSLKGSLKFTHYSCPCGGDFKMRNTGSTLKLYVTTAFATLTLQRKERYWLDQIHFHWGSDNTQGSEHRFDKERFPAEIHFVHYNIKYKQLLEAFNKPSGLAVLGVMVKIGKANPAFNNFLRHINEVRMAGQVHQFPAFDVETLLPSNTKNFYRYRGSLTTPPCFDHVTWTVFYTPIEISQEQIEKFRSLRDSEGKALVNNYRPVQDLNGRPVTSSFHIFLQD

SMILES	KA (μM) * / CruCA4 ^b
N[C@@H](Cc1cnc[nH]1)C(=O)O [compound 1, L-His]	36.9 µM
N[C@H](Cc1c[nH]cn1)C(=O)O [compound 2, D-His]	0.098 µM
N[C@H](Cc1ccccc1)C(=O)O [compound 4, D-Phe]	1.01 µM
N[C@@H](Cc1ccc(O)c(O)c1)C(=O)O [compound 5, L-DOPA]	13.7 µM
N[C@H](Cc1ccc(O)c(O)c1)C(=O)O [compound 6, D-DOPA]	0.93 µM
N[C@@H](Cc1c[nH]c2ccccc12)C(=O)O [compound 7, L-Trp]	9.48 µM
N[C@H](Cc1c[nH]c2ccccc12)C(=O)O [compound 8, D-Trp]	8.35 µM
Nc1ccc(C[C@H](N)C(=O)O)cc1 [compound 11, 4-H2N-L-Phe]	0.074 µM
NCc1ccccn1 [compound 15, 2-Pyridyl-methylamine]	0.41 µM
NCCN1CCNCC1 [compound 17, 1-(2-Aminoethyl)-piperazine]	0.004 µM
NCCN1CCOCC1 [compound 18, 4-(2-Aminoethyl)-morpholine]	0.15 µM
